Assay [1] can be described thus: In vitro adenylate cyclase activity using rat liver plasma membrane bioassay. The assay is classed as tissue-based.
In assay [2] the target is Adenylate cyclase type 5 (Rattus norvegicus) (UniProt Q04400). Description: Percent stimulation ofcAMP production was measured in vitro using rat liver plasma membrane bioassay. The assay is classed as functional, cell-free.
A further assay deals with Glucagon receptor (Rattus norvegicus, UniProt P30082). The experiment in a line: In vitro receptor binding affinity (95% CL) using rat liver plasma membrane bioassay.
A short description of assay [3]: pA2 values were obtained from the dose / response plots. The assay is classed as ADME.
The target of assay [4] is Adenylate cyclase type 5 (Rattus norvegicus) (UniProt Q04400). The experiment in a line: Percent stimulation ofcAMP production was measured in vitro using rat liver plasma membrane bioassay; none. The assay is classed as functional, cell-free.
The target of assay [5] is Glucagon receptor (Rattus norvegicus) (UniProt P30082). Description: In vitro receptor binding affinity using rat liver plasma membrane bioassay; inactive.
Assay [6] is described as follows: In vitro adenylate cyclase activity using rat liver plasma membrane bioassay. Value is inactive up to 50 uM.

Active and inactive are the calls of the source. No cut-off for these calls is given here. Where a SMILES comes first, the peptide text is derived from it. Bridges are numbered along the chain shown (N, C = ends).

Sequence of Adenylate cyclase type 5 (Rattus norvegicus) (Q04400 whole entry): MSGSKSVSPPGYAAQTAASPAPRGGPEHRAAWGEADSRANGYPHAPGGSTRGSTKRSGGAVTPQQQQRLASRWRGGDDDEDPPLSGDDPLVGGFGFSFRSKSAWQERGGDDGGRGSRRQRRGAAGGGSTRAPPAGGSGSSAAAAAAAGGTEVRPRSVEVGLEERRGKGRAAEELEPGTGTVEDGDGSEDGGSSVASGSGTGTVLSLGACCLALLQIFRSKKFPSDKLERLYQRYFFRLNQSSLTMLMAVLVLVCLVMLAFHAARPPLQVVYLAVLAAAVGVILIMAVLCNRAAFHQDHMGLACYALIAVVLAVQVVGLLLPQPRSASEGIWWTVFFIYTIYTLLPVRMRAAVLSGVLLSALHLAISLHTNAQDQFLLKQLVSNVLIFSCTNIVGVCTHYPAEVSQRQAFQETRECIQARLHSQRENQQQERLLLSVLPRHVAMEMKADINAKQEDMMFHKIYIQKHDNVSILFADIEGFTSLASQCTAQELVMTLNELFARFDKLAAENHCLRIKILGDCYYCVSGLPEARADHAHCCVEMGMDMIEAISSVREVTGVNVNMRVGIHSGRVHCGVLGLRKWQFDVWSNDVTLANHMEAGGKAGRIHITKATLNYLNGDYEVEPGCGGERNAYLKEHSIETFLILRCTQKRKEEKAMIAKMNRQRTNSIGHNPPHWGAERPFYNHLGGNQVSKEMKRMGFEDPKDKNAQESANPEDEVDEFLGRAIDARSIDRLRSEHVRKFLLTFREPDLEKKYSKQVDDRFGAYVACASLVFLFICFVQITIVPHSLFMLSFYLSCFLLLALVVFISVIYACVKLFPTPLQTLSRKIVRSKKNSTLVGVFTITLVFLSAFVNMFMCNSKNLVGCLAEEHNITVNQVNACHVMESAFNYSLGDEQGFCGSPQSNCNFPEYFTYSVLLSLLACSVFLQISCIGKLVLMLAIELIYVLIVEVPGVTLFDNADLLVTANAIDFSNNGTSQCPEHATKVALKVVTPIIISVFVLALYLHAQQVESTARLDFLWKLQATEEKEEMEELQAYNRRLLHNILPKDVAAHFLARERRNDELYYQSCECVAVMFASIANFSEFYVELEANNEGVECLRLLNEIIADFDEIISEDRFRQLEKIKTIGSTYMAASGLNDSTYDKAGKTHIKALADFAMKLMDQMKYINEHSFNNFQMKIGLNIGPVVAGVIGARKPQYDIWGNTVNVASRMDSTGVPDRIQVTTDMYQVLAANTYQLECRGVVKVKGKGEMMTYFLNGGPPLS
Sequence of Glucagon receptor (P30082 whole entry): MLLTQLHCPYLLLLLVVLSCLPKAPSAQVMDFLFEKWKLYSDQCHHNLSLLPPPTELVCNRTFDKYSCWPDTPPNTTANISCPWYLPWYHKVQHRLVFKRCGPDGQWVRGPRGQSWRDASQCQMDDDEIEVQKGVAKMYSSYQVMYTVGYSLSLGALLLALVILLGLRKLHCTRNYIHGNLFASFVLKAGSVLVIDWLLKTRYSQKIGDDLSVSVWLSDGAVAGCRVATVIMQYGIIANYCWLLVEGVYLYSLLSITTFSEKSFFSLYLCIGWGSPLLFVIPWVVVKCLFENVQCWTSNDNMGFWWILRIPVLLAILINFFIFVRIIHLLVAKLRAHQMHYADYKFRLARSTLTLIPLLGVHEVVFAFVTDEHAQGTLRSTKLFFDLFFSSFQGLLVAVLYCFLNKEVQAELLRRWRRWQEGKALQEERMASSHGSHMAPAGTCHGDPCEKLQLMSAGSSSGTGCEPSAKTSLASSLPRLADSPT
Sequence of Glucagon receptor (Rattus norvegicus) (P30082 whole entry): as above

Consider `CSCC[C@@H](NC(=O)[C@@H](CC(C)C)NC(=O)[C@@H](Cc1c[nH]c2ccccc12)NC(=O)[C@@H](CCC(N)=O)NC(=O)[C@H](NC(=O)[C@H](Cc1ccccc1)NC(=O)[C@H]1CCC(=O)NCCCC[C@H](NC(=O)[C@H](CCCCN)NC(=O)[C@@H](CO)NC(=O)[C@@H](CC(=O)O)NC(=O)[C@@H](CC(C)C)NC(=O)[C@@H](Cc2ccc(O)cc2)NC(=O)[C@@H](CCCCN)NC(=O)[C@@H](CO)NC(=O)[C@@H](Cc2ccc(O)cc2)NC(=O)[C@@H](CC(=O)O)NC(=O)[C@@H](CO)NC(=O)[C@H](NC(=O)[C@@H](Cc2ccccc2)NC(=O)[C@H](NC(=O)CNC(=O)[C@@H](CCC(N)=O)NC(=O)[C@@H](CO)NC(=O)[C@H](N)Cc2c[nH]cn2)[C@H](C)O)[C@H](C)O)C(=O)N[C@@H](C)C(=O)N[C@H](CCC(N)=O)C(=O)N1)C(C)C)C(=O)N[C@H](CC(N)=O)C(=O)N[C@@H](C(N)=O)[C@H](C)O`, for which the Potency in assay [1] came to 1.6%. In assay [2], the Max stimulation was 60%.
`CSCC[C@H](NC(=O)[C@H](CC(C)C)NC(=O)[C@H](Cc1c[nH]c2ccccc12)NC(=O)[C@H](CCC(N)=O)NC(=O)[C@@H](NC(=O)[C@H](Cc1ccccc1)NC(=O)[C@H](CCC(=O)O)NC(=O)[C@H](CCC(N)=O)NC(=O)[C@H](C)NC(=O)[C@H](CCCCN)NC(=O)[C@H](CCCCN)NC(=O)[C@H](CO)NC(=O)[C@H](CC(=O)O)NC(=O)[C@H](CC(C)C)NC(=O)[C@H](Cc1ccc(O)cc1)NC(=O)[C@@H]1CCCCNC(=O)C[C@H](NC(=O)[C@H](CO)NC(=O)[C@@H](NC(=O)[C@H](Cc2ccccc2)NC(=O)[C@@H](NC(=O)CNC(=O)[C@H](CCC(N)=O)NC(=O)[C@H](CO)NC(=O)[C@@H](N)Cc2cnc[nH]2)[C@@H](C)O)[C@@H](C)O)C(=O)N[C@@H](Cc2ccc(O)cc2)C(=O)N[C@@H](CO)C(=O)N1)C(C)C)C(=O)N[C@@H](CC(N)=O)C(=O)N[C@H](C(N)=O)[C@@H](C)O` (H-HSQGTFTSDYSKYLDSKKAQEFVQWLMNT-NH2; lactam 9-12) displayed a 50% inhibitory concentration (IC50) at Glucagon receptor of 250 nM. Besides, the pA2 in assay [3] amounted to 6.3.
As for `CSCC[C@H](NC(=O)[C@H](CC(C)C)NC(=O)[C@H](Cc1c[nH]c2ccccc12)NC(=O)[C@H](CCC(N)=O)NC(=O)[C@@H](NC(=O)[C@H](Cc1ccccc1)NC(=O)[C@@H]1CCC(=O)NCCCC[C@H](NC(=O)[C@H](CCCCN)NC(=O)[C@H](CO)NC(=O)[C@H](CC(=O)O)NC(=O)[C@H](CC(C)C)NC(=O)[C@H](Cc2ccc(O)cc2)NC(=O)[C@H](CCCCN)NC(=O)[C@H](CO)NC(=O)[C@H](Cc2ccc(O)cc2)NC(=O)[C@H](CC(=O)O)NC(=O)[C@H](CO)NC(=O)[C@@H](NC(=O)[C@H](Cc2ccccc2)NC(=O)[C@@H](NC(=O)CNC(=O)[C@H](CCC(N)=O)NC(=O)[C@H](CO)NC(=O)[C@@H](N)Cc2c[nH]cn2)[C@@H](C)O)[C@@H](C)O)C(=O)N[C@@H](C)C(=O)N[C@@H](CCC(N)=O)C(=O)N1)C(C)C)C(=O)N[C@@H](CC(N)=O)C(=O)N[C@H](C(N)=O)[C@@H](C)O`, on Glucagon receptor, the response was half-maximal at 320 nM (EC50) and the IC50 was 54 nM.
In the case of GLUCAGON, the Potency in assay [1] amounted to 100%. Besides, the Max stimulation in assay [2] is 100%.
Regarding `CSCC[C@H](NC(=O)[C@H](CC(C)C)NC(=O)[C@H](Cc1c[nH]c2ccccc12)NC(=O)[C@H](CCC(N)=O)NC(=O)[C@@H](NC(=O)[C@@H](Cc1ccccc1)NC(=O)[C@@H]1CCC(=O)NCCCC[C@H](NC(=O)[C@H](CO)NC(=O)[C@@H](CC(=O)O)NC(=O)[C@@H](CC(C)C)NC(=O)[C@H](Cc2ccc(O)cc2)NC(=O)[C@H]2CCCCNC(=O)C[C@H](NC(=O)[C@H](CO)NC(=O)[C@H](NC(=O)[C@@H](Cc3ccccc3)NC(=O)[C@H](NC(=O)CNC(=O)[C@@H](CCC(N)=O)NC(=O)[C@@H](CO)NC(=O)[C@H](N)Cc3c[nH]cn3)[C@H](C)O)[C@H](C)O)C(=O)N[C@@H](Cc3ccc(O)cc3)C(=O)N[C@H](CO)C(=O)N2)C(=O)N[C@@H](CCCCN)C(=O)N[C@H](C)C(=O)N[C@@H](CCC(N)=O)C(=O)N1)C(C)C)C(=O)N[C@@H](CC(N)=O)C(=O)N[C@H](C(N)=O)[C@@H](C)O`, the Max stimulation result in assay [4] was “inactive”. Further, in assay [5], the IA entry was “inactive”. For the same molecule, the Potency entry in assay [6] is “Inactive up to 50 uM”.

A word on the IC50: it is the midpoint of a concentration-inhibition curve. High values mean weaker potency, low ones greater potency. What is called pA2 is a measure of antagonist potency on a negative log scale. A higher pA2 goes with higher antagonist potency. Usually EC50 stands for the midpoint of the concentration-response curve. A low value points to an effect from little substance.
